Experiment: pH adjustment of oritavancin/HPCD solution with 1N NaOH: visual observations
Type: physicochemical
Experimental: Reconstituting Orbactiv 400 mg (Oritavancin) in 20% w/v HPCD, diluting in saline then adjusting pH. The 50 mg/mL solution of oritavancin in 20% w/v HPCD (described in Table 3) was further diluted in 0.9% saline to 6 mg/mL in a small glass vial. The pH was adjusted using 1N NaOH. NaOH was added to the oritavancin solution in […] and vortexed. Visual observations and pH were recorded (Table 5).
Reconstituting Orbactiv 400 mg (Oritavancin) in 50% w/v HPCD aqueous solution, adjusting pH then diluting in saline. 6.269 g of HPCD was dissolved in 12.538 mL of water to make a 50% w/v solution (pH=7.23). Seven (7) mL of the 50% w/v solution was added to a 400 mg vial of Orbactiv for a target oritavancin concentration of 57.14 mg/mL. […] A 2 mL aliquot of 57.14 mg/mL was removed from the vial and placed in a small glass vial. The pH was adjusted to 6.5 using 1N NaOH. NaOH was added to the oritavancin solution in 5 μL increments and vortexed. Visual observations and pH were recorded (Table 6).
(§1) Reconstituting Orbactiv 400 mg (Oritavancin) in 50% w/v aqueous HPCD, adjusting pH then diluting in saline. 6.112 g of HPCD was dissolved in 12.224 mL of water to make a 50% w/v solution (pH=6.74). Seven (7) mL of the 50% w/v HPCD solution was added to a 400 mg vial of Orbactiv for a target oritavancin concentration of 57.14 mg/mL. […] A 3 mL aliquot of 57.14 mg/mL was removed from the vial and placed in a small glass vial. The pH was adjusted to 7 using 1N NaOH. NaOH was added to the oritavancin solution in 5 μL increments and vortexed. Visual observations and pH were recorded (Table 8).
as §1, with “20%” for “50%”, “3.555” for “6.112”, “17.775” for “12.224”, “(pH=6.88).” for “(pH=6.74).”, “recorded.” for “recorded”, “10).” for “8).”

With `CN[C@H](CC(C)C)C(=O)N[C@H]1C(=O)N[C@@H](CC(N)=O)C(=O)N[C@H]2C(=O)N[C@H]3C(=O)N[C@H](C(=O)N[C@H](C(=O)O)c4cc(O)cc(O)c4-c4cc3ccc4O)[C@H](O[C@H]3C[C@](C)(N)[C@@H](O)[C@H](C)O3)c3ccc(c(Cl)c3)Oc3cc2cc(c3O[C@@H]2O[C@H](CO)[C@@H](O)[C@H](O)[C@H]2O[C@H]2C[C@](C)(NCc3ccc(-c4ccc(Cl)cc4)cc3)[C@@H](O)[C@H](C)O2)Oc2ccc(cc2Cl)[C@H]1O` [Oritavancin] the Observations (20% w/v HPCD reconstitution diluted in 0.9% saline, 1N NaOH 0 μL, pH 4.10, oritavancin 6.00 mg/mL) was “Clear, colorless solution”, the Observations (20% w/v HPCD reconstitution diluted in 0.9% saline, 1N NaOH 5 μL, pH 5.33, oritavancin 5.99 mg/mL) was “Clear, colorless solution” and the Observations (20% w/v HPCD reconstitution diluted in 0.9% saline, 1N NaOH 10 μL, pH 6.05, oritavancin 5.97 mg/mL) was “Clear, colorless solution”. The “pH at which adjusting with 1N NaOH caused visible precipitation” value (20% w/v HPCD reconstitution diluted to 6 mg/mL in 0.9% saline) was over 6, the Observations (50% w/v HPCD reconstitution (2 mL aliquot), 1N NaOH 0 μL, pH 4.08, oritavancin 57.14 mg/mL) was “Clear, colorless solution” and the Observations (50% w/v HPCD reconstitution (2 mL aliquot), 1N NaOH 5 μL, pH 4.26, oritavancin 57.10 mg/mL) was “Clear, colorless solution”. For the same compound, the Observations (50% w/v HPCD reconstitution (2 mL aliquot), 1N NaOH 10 μL, pH 4.56, oritavancin 57.06 mg/mL) was “Clear, colorless solution”, the Observations (50% w/v HPCD reconstitution (2 mL aliquot), 1N NaOH 15 μL, pH 4.90, oritavancin 57.02 mg/mL) was “Clear, colorless solution” and the Observations (50% w/v HPCD reconstitution (2 mL aliquot), 1N NaOH 20 μL, pH 5.19, oritavancin 56.98 mg/mL) was “Clear, colorless solution”. For the same compound, the Observations (50% w/v HPCD reconstitution (2 mL aliquot), 1N NaOH 25 μL, pH 5.39, oritavancin 56.94 mg/mL) was “Clear, colorless solution”, the Observations (50% w/v HPCD reconstitution (2 mL aliquot), 1N NaOH 30 μL, pH 5.65, oritavancin 56.90 mg/mL) was “Clear, colorless solution” and the Observations (50% w/v HPCD reconstitution (2 mL aliquot), 1N NaOH 35 μL, pH 5.81, oritavancin 56.86 mg/mL) was “Clear, colorless solution”. The Observations (50% w/v HPCD reconstitution (2 mL aliquot), 1N NaOH 40 μL, pH 6.10, oritavancin 56.82 mg/mL) was “Clear, colorless solution”, the Observations (50% w/v HPCD reconstitution (2 mL aliquot), 1N NaOH 45 μL, pH 6.17, oritavancin 56.78 mg/mL) was “Clear, colorless solution” and the Observations (50% w/v HPCD reconstitution (2 mL aliquot), 1N NaOH 50 μL, pH 6.33, oritavancin 56.74 mg/mL) was “Clear, colorless solution”. For the same compound, the Observations (50% w/v HPCD reconstitution (3 mL aliquot), 1N NaOH 0 μL, pH 4.05, oritavancin 57.14 mg/mL) was “Clear, colorless solution”, the Observations (50% w/v HPCD reconstitution (3 mL aliquot), 1N NaOH 5 μL, pH 4.28, oritavancin 57.04 mg/mL) was “Clear, colorless solution” and the Observations (50% w/v HPCD reconstitution (3 mL aliquot), 1N NaOH 10 μL, pH 4.44, oritavancin 56.94 mg/mL) was “Clear, colorless solution”. For the same compound, the Observations (50% w/v HPCD reconstitution (3 mL aliquot), 1N NaOH 15 μL, pH 4.68, oritavancin 56.84 mg/mL) was “Clear, colorless solution”, the Observations (50% w/v HPCD reconstitution (3 mL aliquot), 1N NaOH 20 μL, pH 4.93, oritavancin 56.74 mg/mL) was “Clear, colorless solution” and the Observations (50% w/v HPCD reconstitution (3 mL aliquot), 1N NaOH 25 μL, pH 5.11, oritavancin 56.64 mg/mL) was “Clear, colorless solution”. For the same compound, the Observations (50% w/v HPCD reconstitution (3 mL aliquot), 1N NaOH 30 μL, pH 5.23, oritavancin 56.54 mg/mL) was “Clear, colorless solution”, the Observations (50% w/v HPCD reconstitution (3 mL aliquot), 1N NaOH 35 μL, pH 5.36, oritavancin 56.44 mg/mL) was “Clear, colorless solution” and the Observations (50% w/v HPCD reconstitution (3 mL aliquot), 1N NaOH 40 μL, pH 5.48, oritavancin 56.35 mg/mL) was “Clear, colorless solution”. The Observations (50% w/v HPCD reconstitution (3 mL aliquot), 1N NaOH 45 μL, pH 5.77, oritavancin 56.24 mg/mL) was “Clear, colorless solution”, the Observations (50% w/v HPCD reconstitution (3 mL aliquot), 1N NaOH 50 μL, pH 5.82, oritavancin 56.14 mg/mL) was “Clear, colorless solution” and the Observations (50% w/v HPCD reconstitution (3 mL aliquot), 1N NaOH 55 μL, pH 5.85, oritavancin 56.03 mg/mL) was “Clear, colorless solution”. For the same compound, the Observations (50% w/v HPCD reconstitution (3 mL aliquot), 1N NaOH 60 μL, pH 5.94, oritavancin 55.93 mg/mL) was “Clear, colorless solution”, the Observations (50% w/v HPCD reconstitution (3 mL aliquot), 1N NaOH 65 μL, pH 6.05, oritavancin 55.83 mg/mL) was “Clear, colorless solution” and the Observations (50% w/v HPCD reconstitution (3 mL aliquot), 1N NaOH 70 μL, pH 6.15, oritavancin 55.72 mg/mL) was “Clear, colorless solution”. The Observations (50% w/v HPCD reconstitution (3 mL aliquot), 1N NaOH 75 μL, pH 6.20, oritavancin 55.61 mg/mL) was “Clear, colorless solution”, the Observations (50% w/v HPCD reconstitution (3 mL aliquot), 1N NaOH 80 μL, pH 6.23, oritavancin 55.50 mg/mL) was “Clear, colorless solution” and the Observations (50% w/v HPCD reconstitution (3 mL aliquot), 1N NaOH 85 μL, pH 6.34, oritavancin 55.39 mg/mL) was “Clear, colorless solution”. The Observations (50% w/v HPCD reconstitution (3 mL aliquot), 1N NaOH 90 μL, pH 6.32, oritavancin 55.28 mg/mL) was “Clear, colorless solution”, the Observations (50% w/v HPCD reconstitution (3 mL aliquot), 1N NaOH 95 μL, pH 6.38, oritavancin 55.17 mg/mL) was “Clear, colorless solution” and the Observations (50% w/v HPCD reconstitution (3 mL aliquot), 1N NaOH 100 μL, pH 6.46, oritavancin 55.07 mg/mL) was “Clear, colorless solution”. The Observations (50% w/v HPCD reconstitution (3 mL aliquot), 1N NaOH 105 μL, pH 6.57, oritavancin 54.95 mg/mL) was “Clear, colorless solution”, the Observations (50% w/v HPCD reconstitution (3 mL aliquot), 1N NaOH 110 μL, pH 6.59, oritavancin 54.84 mg/mL) was “Clear, colorless solution” and the Observations (50% w/v HPCD reconstitution (3 mL aliquot), 1N NaOH 115 μL, pH 6.71, oritavancin 54.73 mg/mL) was “Clear, colorless solution”. For the same compound, the Observations (50% w/v HPCD reconstitution (3 mL aliquot), 1N NaOH 120 μL, pH 6.70, oritavancin 54.61 mg/mL) was “Clear, colorless solution”, the Observations (50% w/v HPCD reconstitution (3 mL aliquot), 1N NaOH 125 μL, pH 6.75, oritavancin 54.50 mg/mL) was “Clear, colorless solution” and the Observations (50% w/v HPCD reconstitution (3 mL aliquot), 1N NaOH 130 μL, pH 6.90, oritavancin 54.38 mg/mL) was “Clear, colorless solution”. The Observations (50% w/v HPCD reconstitution (3 mL aliquot), 1N NaOH 135 μL, pH 6.90, oritavancin 54.26 mg/mL) was “Clear, colorless solution” and the Observations (50% w/v HPCD reconstitution (3 mL aliquot), 1N NaOH 140 μL, pH 6.96, oritavancin 54.14 mg/mL) was “Clear, colorless solution”.
